Experimental data reported in US20180147183A1, “USE OF R-OXIRACETAM IN PHARMACEUTICAL FIELD” (Chongqing Runze Pharmaceutical Co., Ltd., priority 2015, published 2018).
Marks after values point to notes of the source that are not given here.

System: lithium chloride-pilocarpine epilepsy model rat
Assay: Lithium chloride-pilocarpine rat epilepsy model, prophylactic administration
Format: in vivo, SD rats
Details: 120 mg/kg for 7 days before modeling, 10 rats
Description: Stages: epileptic seizures evaluation are categorized by Racine Stages
Stage 0: no signs of any seizure;
Stage I: staring, head and face slightly trembling;
Stage II: head nodding or wet dog-like shaking;
Stage III: forelimb limit convulsions;
Stage IV: full-body ankylosing convulsions with a standing hind limb;
Stage V: full-body ankylosing clonic seizures with standing with fell;
Partial epilepsy seizure occurs when any one of Stage Ito Stage III appears;
Generalized epilepsy seizure occurs when Stage IV or Stage V appears;
Status epilepticus (SE) occurs when Stage IV or Stage V lasts 30 minutes.
The rat epilepsy models were treated with lithium chloride-pilocarpine and used levetiracetam as positive control. The duration of acute seizures of lithium chloride-pilocarpine epilepsy model rat was selected as the observation time, and prophylactic administration was used.
Animals were randomly divided into 4 groups, 10/group. Levetiracetam was selected as a positive control, 1.5 times of clinical dose were chosen, that is, 150 mg/kg. The clinical dose of an adult is 800 mg/times, twice daily, that is, 1600 mg/60 kg, 26.7 mg/kg. The dose of a rat is converted to 160 mg/kg according to body surface area. R-oxiracetam and levorotatory oxiracetam were selected half of the dose, that is, 80 mg/kg, and 1.5 times is 120 mg/kg. The dose was 1 ml/100 g, and the rats were treated with continuous administration for 7 days. As levetiracetam administration of 1.3 h (80 min), the plasma concentration peak, so we choose the last 80 minutes after the last administration of modeling. As administration of levetiracetam for 1.3 h (80 min), the plasma concentration peak was reached, so each group was selected after the last 80 minutes after the start of modeling.
Modeling method: After several previous test, the following modeling method was chosen: Animal ip. Lithium chloride 3 mmol/kg (1.5 ml/L) 127 mg/kg (12.7 mg/ml, 1 ml/100 g body weight), 24 h, 37.5 mg/kg pilocarpine three times ip. mg/kg (2.5 mg/ml, 0.5 ml/100 g body weight) at intervals of 10 minutes. […]

Question: Which “Latency Stage I” value does the source give for `NC(=O)CN1C[C@H](O)CC1=O` [R-oxiracetam, (R)-4-hydroxy-2-oxo-1-pyrrolidineacetamide] here?
Answer: 19.6 ± 4.4 min

Question: What about the “Latency Stage II” value of the same molecule?
Answer: 34.7 ± 15.2 min

Question: And the “Latency Stage III” value?
Answer: 40.2 ± 12.1 min

Question: And the “Latency Stage IV” value?
Answer: 35.0 ± 2.8 min

Question: And the “Latency Stage V” value?
Answer: 38.0 ± 2.8 min

Question: And the “Number of Deaths” value?
Answer: 1

Question: What about the “Number of SE Animals” value of the same molecule?
Answer: 2

Question: And the “Number of seizures Stage I” value?
Answer: 2.3 ± 1.2 times

Question: What about the “Number of seizures Stage II” value of the same molecule?
Answer: 6.8 ± 3.7 times

Question: What about the “Number of seizures Stage III” value of the same molecule?
Answer: 6.4 ± 3.6 times

Question: And the “Occurrence rate Stage I” value?
Answer: 10%

Question: What about the “Occurrence rate Stage II” value of the same molecule?
Answer: 10%

Question: What about the “Occurrence rate Stage III” value of the same molecule?
Answer: 5%

Question: What about the “Occurrence rate Stage IV” value of the same molecule?
Answer: 2* %

Question: What about the “Occurrence rate Stage V” value of the same molecule?
Answer: 2%

Question: And the “duration Stage IV” value?
Answer: 10.0 ± 1.4 min

Question: And the “duration Stage V” value?
Answer: 26.5 ± 0.7 min

Question: What about the “number of animals having stage IV” value (P<0.05 vs model control) of the same molecule?
Answer: 20%

Question: And the mortality rate (within 1 to 7 days after modeling)?
Answer: 10%
